Results taken from US11096985B2, “Antimicrobial peptides, their variants and uses” (priority 2015, dated 2021).

What was measured:
Format in all cases: cell-based
[1] = test system: clinical strains of Acinetobacter baumannii; assay: MIC, clinical strains of Acinetobacter baumannii; conditions: microdilution, Muller Hinton broth-cation adjusted, 0.02% BSA, 0.2% acetic acid
Method: (§1) Minimum inhibition concentrations (MICs) were determined against Escherichia coli (ATCC 25922), Staphylococcus aureus (ATCC 25923), Klebsiella pneumoniae (ATCC 10031) and Pseudomonas aeruginosa (ATCC 27853). Also clinical strains of E. coli, K. pneumoniae, E. cloacae, P. aeruginosa, Serratia marcescens, Proteus mirabilis, S. pneumoniae, Acinetobacter baumannii, A. johnsonii and S. aureus were used for MICs assays. Additionally, clinical strains of yeast including Candida albicans, C. glabrata, C. parapsilosis and C. quillermondiae were used. The susceptibility of these microorganisms to Chain peptides were determined using micro broth dilution assay. Colonies of the respective microorganism from Muller Hinton (MH) agar plates incubated overnight were suspended in MH broth media and final concentration of microorganism was adjusted to 5.0×10^5 cfu/ml. An aliquot of 10 μl of each Chain peptide, or gentamicin, tetracycline as reference antibiotics were added in differing concentrations along with 90 μl of bacterial suspension to 96 well polypropylene plates and incubated at 37° C. for 20 to 24 hours. Concentrations of Chain peptides and reference antibiotics ranged from 0.125 to 128 μg/ml and the MICs were recorded as the lowest concentration with no visual growth of bacteria. Similarly, antifungal MICs were tested in Potato dextrose broth.
(§2) Clinical strains of yeasts including Candida albicans, C. glabrata, C. parapsilosis and C. quillermondiae were also tested with the 12 Chain peptides. The minimum inhibitory concentration (MICs) varied between these peptides and are presented in Tables 4a, 4b, 4c and 5a, 5b, 5c. Peptides Chain 105, 201 and 308 are broad spectrum antimicrobials with MICs between 0.5-32 μg/ml against all the bacteria and yeasts tested, except Serratia marcescens and Proteus mirabilis, against which the MICs were between 64-128 μg/ml. Peptide Chain 306 has narrow spectrum activity against E.coli at 1 μg/ml and for the rest of the bacterial strains at >32 μg/ml (FIG. 10).

[2] = test system: clinical strains of Streptococcus pneumoniae; assay: MIC, clinical strains of Streptococcus pneumoniae; parameters: unit: µg/mL; conditions: microdilution, Muller Hinton broth-cation adjusted, 0.02% BSA, 0.2% acetic acid
In short: (§3)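 Clinical isolates at 5.0×10^5 cfu/ml in Mueller-Hinton broth (Potato dextrose broth for yeasts) were exposed to Chain peptides at 0.125–128 μg/ml by broth microdilution, 37 °C for 20–24 h. MIC was the lowest concentration with no visible growth.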

[3] = test system: clinical strains of Proteus mirabilis; assay: MIC, clinical strains of Proteus mirabilis; parameters: unit: µg/mL; conditions: microdilution, Muller Hinton broth-cation adjusted, 0.02% BSA, 0.2% acetic acid
In short: as §3

[4] = test system: clinical strains of Escherichia coli; assay: MIC, clinical strains of E. coli; parameters: unit: μg/ml; conditions: microdilution, Muller Hinton broth-cation adjusted, 0.02% BSA, 0.2% acetic acid
In short: as §3

[5] = test system: clinical strains of Acinetobacter johnsonii; conditions: Acinetobacter johnsonii clinical strain 1; microdilution, Muller Hinton broth-cation adjusted, 0.02% BSA, 0.2% acetic acid
Method: as §1, §2

[6] = test system: clinical strains of Enterobacter cloacae; assay: MIC, clinical strains of Enterobacter cloacae; parameters: unit: μg/ml; conditions: microdilution, Muller Hinton broth-cation adjusted, 0.02% BSA, 0.2% acetic acid
In short: as §3

[7] = test system: clinical strains of Klebsiella pneumoniae; assay: MIC, clinical strains of K. pneumoniae; parameters: unit: μg/ml; conditions: microdilution, Muller Hinton broth-cation adjusted, 0.02% BSA, 0.2% acetic acid
In short: as §3

[8] = test system: clinical strains of Staphylococcus aureus; assay: MIC, clinical strains of S. aureus; parameters: unit: μg/ml; conditions: microdilution, Muller Hinton broth-cation adjusted, 0.02% BSA, 0.2% acetic acid
In short: as §3

[9] = test system: clinical strains of Serratia marcescens; assay: MIC, clinical strains of Serratia marcescens; parameters: unit: µg/mL; conditions: microdilution, Muller Hinton broth-cation adjusted, 0.02% BSA, 0.2% acetic acid
In short: as §3

[10] = test system: clinical strains of Pseudomonas aeruginosa; assay: MIC, clinical strains of P. aeruginosa; parameters: unit: μg/ml; conditions: microdilution, Muller Hinton broth-cation adjusted, 0.02% BSA, 0.2% acetic acid
In short: as §3

Question: What does the source list for Gentamicin [reference compound]?
Answer: Minimum inhibitory concentration ([1]; Acinetobacter baumannii clinical strain 1): 0.5; Minimum inhibitory concentration ([1]; Acinetobacter baumannii clinical strain 2): 0.25; Minimum inhibitory concentration ([1]; Acinetobacter baumannii clinical strain 3): 0.5; Minimum inhibitory concentration ([1]; Acinetobacter baumannii clinical strain 4): 0.5; Minimum inhibitory concentration ([1]; Acinetobacter baumannii clinical strain 5): 0.25; Minimum inhibitory concentration ([2]; Streptococcus pneumoniae clinical strain 1): 2; Minimum inhibitory concentration ([2]; Streptococcus pneumoniae clinical strain 2): 2; Minimum inhibitory concentration ([2]; Streptococcus pneumoniae clinical strain 3): 2; Minimum inhibitory concentration ([2]; Streptococcus pneumoniae clinical strain 4): 2; Minimum inhibitory concentration ([2]; Streptococcus pneumoniae clinical strain 5): 1; Minimum inhibitory concentration ([3]; Proteus mirabilis clinical strain 1): 2; Minimum inhibitory concentration ([3]; Proteus mirabilis clinical strain 2): 2; Minimum inhibitory concentration ([3]; Proteus mirabilis clinical strain 3): >128; Minimum inhibitory concentration ([3]; Proteus mirabilis clinical strain 4): 8; Minimum inhibitory concentration ([3]; Proteus mirabilis clinical strain 5): >128; Minimum inhibitory concentration ([4]; Escherichia coli clinical strain 1): 0.5; Minimum inhibitory concentration ([4]; Escherichia coli clinical strain 2): 0.5; Minimum inhibitory concentration ([4]; Escherichia coli clinical strain 3): 1; Minimum inhibitory concentration ([4]; Escherichia coli clinical strain 4): 1; Minimum inhibitory concentration ([4]; Escherichia coli clinical strain 5): 1; Minimum inhibitory concentration [5]: 0.25; Minimum inhibitory concentration ([6]; Enterobacter cloacae clinical strain 1): 0.25; Minimum inhibitory concentration ([6]; Enterobacter cloacae clinical strain 2): 0.25; Minimum inhibitory concentration ([6]; Enterobacter cloacae clinical strain 3): 0.25; Minimum inhibitory concentration ([6]; Enterobacter cloacae clinical strain 4): 0.25; Minimum inhibitory concentration ([6]; Enterobacter cloacae clinical strain 5): 0.25; Minimum inhibitory concentration ([7]; Klebsiella pneumoniae clinical strain 1): 2; Minimum inhibitory concentration ([7]; Klebsiella pneumoniae clinical strain 2): 0.25; Minimum inhibitory concentration ([7]; Klebsiella pneumoniae clinical strain 3): 2; Minimum inhibitory concentration ([7]; Klebsiella pneumoniae clinical strain 4): 2; Minimum inhibitory concentration ([7]; Klebsiella pneumoniae clinical strain 5): 4; Minimum inhibitory concentration ([8]; Staphylococcus aureus clinical strain 1): 0.5; Minimum inhibitory concentration ([8]; Staphylococcus aureus clinical strain 2): 0.5; Minimum inhibitory concentration ([8]; Staphylococcus aureus clinical strain 3): 0.5; Minimum inhibitory concentration ([8]; Staphylococcus aureus clinical strain 4): 0.5; Minimum inhibitory concentration ([8]; Staphylococcus aureus clinical strain 5): 0.5; Minimum inhibitory concentration ([9]; Serratia marcescens clinical strain 1): 1; Minimum inhibitory concentration ([9]; Serratia marcescens clinical strain 2): 2; Minimum inhibitory concentration ([9]; Serratia marcescens clinical strain 3): 1; Minimum inhibitory concentration ([9]; Serratia marcescens clinical strain 4): 1; Minimum inhibitory concentration ([9]; Serratia marcescens clinical strain 5): 1; Minimum inhibitory concentration ([10]; Pseudomonas aeruginosa clinical strain 1): 1; Minimum inhibitory concentration ([10]; Pseudomonas aeruginosa clinical strain 2): 0.5; Minimum inhibitory concentration ([10]; Pseudomonas aeruginosa clinical strain 3): 0.5; Minimum inhibitory concentration ([10]; Pseudomonas aeruginosa clinical strain 4): 0.5; Minimum inhibitory concentration ([10]; Pseudomonas aeruginosa clinical strain 5): 0.25
